Measured values: PMC3268193 (British Journal of Pharmacology, 2012)
Numbering of substitutions follows the chain as printed.

Assays:
Format in all cases: cell-based
[1] = target: T1, P2X2 receptor mutant X2-KLKML(2) (E134KD136K) (Homo sapiens, UniProt Q9UBL9, D148K/E146K); assay: Two-electrode voltage clamp, P2X2 mutant X2-KLKML; details: double mutation E134KD136K
T1 sequence (Q9UBL9 1-471 E146K/D148K): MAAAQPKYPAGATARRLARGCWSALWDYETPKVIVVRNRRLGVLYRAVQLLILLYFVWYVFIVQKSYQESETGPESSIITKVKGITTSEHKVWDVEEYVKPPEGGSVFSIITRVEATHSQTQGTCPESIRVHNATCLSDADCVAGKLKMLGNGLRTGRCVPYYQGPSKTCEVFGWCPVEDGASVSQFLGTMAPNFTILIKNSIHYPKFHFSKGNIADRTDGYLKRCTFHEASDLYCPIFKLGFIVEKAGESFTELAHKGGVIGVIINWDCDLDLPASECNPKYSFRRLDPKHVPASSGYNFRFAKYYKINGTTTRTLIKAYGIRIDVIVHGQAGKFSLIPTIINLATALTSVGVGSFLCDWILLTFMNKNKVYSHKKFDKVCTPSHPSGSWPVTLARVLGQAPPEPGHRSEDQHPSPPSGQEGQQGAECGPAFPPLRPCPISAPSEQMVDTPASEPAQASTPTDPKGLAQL

[2] = target: T2, P2X1 Cys2(3-4) chimera (Homo sapiens, UniProt P51575, A137L/A141G/I144L/K136E/K138D/K140L/K148R/P134A/Q142N/R139M/T133V); assay: Two-electrode voltage clamp, chimera P2X1 Cys2
T2 sequence (P51575 1-399 T133V/P134A/K136E/A137L/K138D/R139M/K140L/A141G/Q142N/I144L/K148R): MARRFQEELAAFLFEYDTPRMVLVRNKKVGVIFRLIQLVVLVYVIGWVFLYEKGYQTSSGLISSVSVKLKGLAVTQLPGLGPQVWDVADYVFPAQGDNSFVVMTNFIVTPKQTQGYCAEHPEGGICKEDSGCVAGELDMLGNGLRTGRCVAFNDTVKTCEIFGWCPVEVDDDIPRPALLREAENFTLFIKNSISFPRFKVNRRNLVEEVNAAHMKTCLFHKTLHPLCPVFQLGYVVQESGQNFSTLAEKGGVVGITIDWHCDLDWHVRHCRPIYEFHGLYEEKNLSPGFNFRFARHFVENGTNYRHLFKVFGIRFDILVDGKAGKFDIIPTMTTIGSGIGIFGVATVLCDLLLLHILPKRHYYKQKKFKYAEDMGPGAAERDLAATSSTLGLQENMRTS

[3] = target: T3, P2X1 receptor mutant K138D (Homo sapiens, UniProt P51575, K138D); assay: Two-electrode voltage clamp, P2X1 mutant K138D
T3 sequence (P51575 1-399 K138D): T2 sequence (P51575 1-399 T133V/P134A/K136E/A137L/K138D/R139M/K140L/A141G/Q142N/I144L/K148R) with V133T, A134P, E136K, L137A, M139R, L140K, G141A, N142Q, L144I, R148K

| Increase in suramin sensitivity compared with WT P2X2 [1] | Decrease in NF449 sensitivity compared with P2X1 WT [2] | Reduction in NF449 sensitivity compared with P2X1 WT [3] | SMILES |
| --- | --- | --- | --- |
| 10 fold |  |  | Cc1ccc(C(=O)Nc2ccc(S(=O)(=O)O)c3cc(S(=O)(=O)O)cc(S(=O)(=O)O)c23)cc1NC(=O)c1cccc(NC(=O)Nc2cccc(C(=O)Nc3cc(C(=O)Nc4ccc(S(=O)(=O)O)c5cc(S(=O)(=O)O)cc(S(=O)(=O)O)c45)ccc3C)c2)c1 [suramin] |
|  | ~1700 fold | ~10 fold | O=C(Nc1cc(C(=O)Nc2ccc(S(=O)(=O)O)cc2S(=O)(=O)O)cc(C(=O)Nc2ccc(S(=O)(=O)O)cc2S(=O)(=O)O)c1)Nc1cc(C(=O)Nc2ccc(S(=O)(=O)O)cc2S(=O)(=O)O)cc(C(=O)Nc2ccc(S(=O)(=O)O)cc2S(=O)(=O)O)c1 [NF449, 4,4′,4′′,4′′′-(carbonylbis(imino-5,1,3-benzenetriyl-bis(carbonylimino)))tetrakis-benzene-1,3-disulphonic acid] |
